The values below come from patent publication US12691114B2, “Compositions for inhibition of herpesviruses” (The Medical College of Wisconsin, Inc., priority 2020, dated 2026).

One series relates to HCMV TB40. Description: Drug combination with letermovir, plaque assay TB40, Bliss model. The format is cell-based, human cytomegalovirus. Conditions: Human betaherpesvirus 5, read-out: EC50 of Compound 1 (Letermovir). The method, then:
(§1) Drug combination and analysis: These experiments were performed as previously reported^40. The combination of GCV and each compound was tested using the pp28-luciferase. Briefly, 2×10^6 HFFs/plate were seeded in 96-well plates and infected with the pp28-luciferase Towne HCMV strain (MOI=1). First, a dose response curve was generated for each drug individually to determine its EC50. Then, drugs were combined at twice their EC50, diluted in DMEM with 4% FBS, followed by serial dilution and added together after infection. Luciferase activity of the combination and each drug individually was quantified at 72 hpi. The combination of letermovir and each of the new compounds was tested by the plaque assay using TB40. The same principle applied in this assay for the drug combination effect, and plaques were counted at 8 dpi. The Bliss model was used to calculate the effect of each drug combination on pp28-luciferase activity and plaque reduction. In this model, drug combination represents the product of two probabilistically independent events as described in the following equation^41.
(§2) [formula] Where D is the drug concentration, m is the slope, and EC50 is the effective concentration resulting in 50% virus inhibition. The combined effect of two inhibitors (Fu, fractional unaffected) is computed as the product of individual effects of the two inhibitors, Fu1 and Fu2. If the ratio of observed fold inhibition divided by the expected fold inhibition is greater than 1, the compounds are synergistic. If the ratio is less than 1, the combination is considered antagonistic, and if it equals to 1 the combination is additive.
Pattern of drug combination with GCV and letermovir: The effect of each compound alone or in combination with GCV or letermovir was tested in HCMV-infected HFFs. […] A ratio of observed fold inhibition divided by the expected fold inhibition of >1 was considered drug synergy, <1 as drug antagonism, and =1 as additive. For letermovir and its combination with each of the five compounds the EC50 was determined based on plaque assay. The combination of GCV and 2955 was also tested by plaque assay. All other combinations and Bliss coefficients were measured by pp28- luciferase.

The subject of series [1] is HCMV Towne entry into HFFs. Description: HCMV entry, indirect immunofluorescence assay for pp65. In kind it is cell-based. Conditions: pretreatment 24 h: MLS8969 3 μM, Heparin 30 μM, GCV 5 μM; IFA 2 hpi. Here is the method: HCMV entry and indirect immunofluorescence assay: MLS8969, GCV and heparin control were used to determine inhibition of HCMV entry. Compounds were diluted in serum-free media and added to HFFs seeded on chamber slides 24 h prior to infection. After infection (MOI 1 or 0.1 PFU/cell) for 2 h, cells were fixed with 100% chilled methanol, blocked for 1 h with phosphate-buffered saline (PBS), 5% serum, 0.3% Triton X-100. Cells were then incubated with mouse monoclonal anti-pp65 antibody, 1:50 (Vector Laboratories, Burlingame, CA) at 37° C. in humidified chambers for 1 h, washed three times with TBST (0.1%), incubated with rhodamine-conjugated anti-mouse IgG, 1:500 (Sigma) at 37° C. in humidified chambers for 1 h and washed with TBST (0.1%). A drop of mount oil containing DAPI (Santa Cruz Biotechnology, Santa Cruz, CA) was added to the slides before visualization with a Zeiss ZI fluorescence microscope. Images were captured at 40× magnification.

Another series is described as follows: in vitro. Particulars: human. Here is the method: Cytotoxicity assay: MTT assay was performed as described by manufacturer's instructions (Sigma-Aldrich). Non-infected cells were treated with compounds for 72 h or 10 days (same time points of the antiviral assay), and 20 μL/well of MTT [3-(4, 5-Dimethyl-2-thiazolyl)-2, 5-diphenyl-2H-tetrazolium bromide], 5 mg/mL in phosphate buffered saline (PBS)] was added to each well. After shaking at 150 rpm for 5 min the plates were incubated at 37° C. for 2-3 h. Conversion of yellow solution to dark blue formazan by mitochondrial dehydrogenases of living cells was quantified by measuring absorbance at 560 nm.
HCMV inhibition was measured by luciferase activity of pp28-recombinant Towne and pp28 GCV-resistant Towne strains of HCMV (72 hpi) and by plaque reduction using HCMV Towne or TB40 (10 days). Viral protein expression was measured by Western blot.

Another series deals with HSV1 clinical isolate. Description: Plaque reduction assay, HSV1 in Vero cells. The format is cell-based, Human Herpesvirus 1. Particulars: Human alphaherpesvirus 1, Vero, read-out: EC50—HSV1-C1 (μM). The source says:
(§3) Viruses and antiviral assays: A recombinant pp28-luciferase Towne HCMV strain expressing luciferase under the control of the UL99 (pp28) late promoter was reported to provide a highly-sensitive and reproducible reporter for drug screening^20. A GCV-resistant HCMV pp28-luciferase that contains a C607Y mutation in UL97 was reported^37. The HCMV TB40 strain was obtained from ATCC (VR-1578). Clinical isolates of Human Herpesvirus 1 and 2 (HSV1, HSV2) were collected from the Johns Hopkins Microbiology laboratory without identifiers that could link them to a specific patient. Mouse CMV (MCMV) Smith strain (ATCC VR-1399) was used for infection of MEFs.
(§4) Plaque reduction assay: HFFs were seeded into 12-well plates (2×10^5 cells/well) and infected with HCMV TB40 at approximately 100 plaques/well. After 90 min, media were aspirated, and DMEM containing 0.5% carboxymethyl-cellulose (CMC), 4% fetal bovine serum (FBS), and drugs were added into duplicate wells. Following incubation at 37° C. for 10-12 days the overlay was removed, and plaques were counted after crystal violet staining. For HSV1 and HSV2 replication in Vero cells, the adsorption time was 60 min and plaques were counted after 36 h. Plaque assays in MEFs were completed after 3 days.
(§5) Inhibition of other herpesviruses: Inhibition of herpes simplex 1 and 2 (HSV1, HSV2), Epstein Barr virus (EBV) and mouse CMV (MCMV) was tested with the five compounds. Plaque reductions assays were used for HSV1, HSV2 and MCMV. Inhibition of lytic EBV replication was measured by real-time PCR in AKATA cells following IgG induction. Only MLS8554 was active against HSV1, HSV2 and MCMV (Table 2).

The subject of the next series is HSV2 clinical isolate. Description: Plaque reduction assay, HSV2 in Vero cells. The format is cell-based, Human Herpesvirus 2. Conditions: Human alphaherpesvirus 2, Vero, read-out: EC50—HSV2-C1 (μM).
Excerpt: as §3, §4, §5

For the next series, the system named is Epstein Barr Virus (EBV). Description: Inhibition of lytic EBV replication in Akata cells, real-time PCR of BALF5. In kind it is cell-based. Conditions: human gammaherpesvirus 4, IgG induction, real-time PCR at 48 hours, NA = Not active. Here is the method: Inhibition of lytic Epstein Barr Virus (EBV) replication: Akata cells (0.5×10^6/well of 24-well plate) latently infected with EBV were induced with 100 μg/ml of goat antihuman IgG (Sigma). Compounds and GCV control were added to triplicate wells immediately after the addition of human IgG. Cells were collected 48 hours after lytic induction for DNA quantification. Cellular DNA was purified using Wizard SV Genomic Kit (Promega, Madison, WI). The effect of the compounds on lytic induction of EBV was analyzed by real-time PCR of the EBV DNA polymerase gene, BALF5^38.
as §5
(In qPCR the cycle at which signal appears reflects the starting amount.)

Series [2] has as its system Mouse CMV (MCMV) Smith strain. Description: Plaque assay, mouse CMV in MEFs. The format is cell-based, mouse cytomegalovirus. Particulars: Murid betaherpesvirus 1; plaque reduction, MEFs; NA = Not active.
Excerpt: as §3, §4, §5

Series [3] deals with pp28-luciferase Towne HCMV. Description: Drug combination with GCV, pp28-luciferase Towne, Bliss model. In kind it is cell-based, human cytomegalovirus. Conditions: Human betaherpesvirus 5, read-out: EC50 of Compound 1 (GCV), pp28-luciferase Towne, MOI=1, 72 hpi; one value per combination experiment. The method, then: as §1, §2
(§6) Pattern of drug combination with GCV and letermovir: The effect of each compound alone or in combination with GCV or letermovir was tested in HCMV-infected HFFs. […] For letermovir and its combination with each of the five compounds the EC50 was determined based on plaque assay. […] All other combinations and Bliss coefficients were measured by pp28- luciferase.

For the next series, the system named is HCMV. Kind of series: Drug combination of GCV and 2955 by plaque assay, Bliss model. The format is cell-based, human cytomegalovirus. Particulars: Human betaherpesvirus 5; combination experiment with NCGC2955, plaque assay; read-out: EC50 of Compound 1 (GCV). Here is the method:
as §1, with “In this model, drug combination represents the product of two probabilistically independent events as described in the following equation^41.” left out
as §6

Broadly, the EC50 is the concentration needed to bring the measured effect to its halfway point.

Consider `COc1cccc(N2CCN(C3=Nc4c(F)cccc4[C@H](CC(=O)O)N3c3cc(C(F)(F)F)ccc3OC)CC2)c1` [Letermovir, letermovir, reference compound], for which the EC50 in the series with HCMV TB40 was determined as 1.1 nM.

As to Heparin, the “inhibition of HCMV entry (pp65 nuclear staining), in words” value in [1] is “inhibited HCMV entry”.

Turning to `Nc1nc(O)c2ncn(COC(CO)CO)c2n1` [GCV, ganciclovir, reference compound], the CC50 in the series “in vitro” was more than 200000 nM. Further, the EC50 in the series with HSV1 clinical isolate amounted to 0.04 µM; with HSV2 clinical isolate it was 0.58 µM; in the series with Epstein Barr Virus (EBV), 5200 ± 400 nM; in series [2], 960 ± 100 nM; in series [3] it was 1330 nM; with HCMV it was 770 ± 80 nM. The “inhibition of HCMV entry (pp65 nuclear staining), in words” value in series [1] is listed as “did not affect pp65 nuclear staining”.
